How the values were obtained:
Assay in all cases: relative viability (nuclei count vs DMSO), 5 days (fraction); higher = more cells survive
BX 795 + Lapatinib = compound: O=C(NCCCNc1nc(Nc2cccc(NC(=O)N3CCCC3)c2)ncc1I)c1cccs1 [BX 795] + CS(=O)(=O)CCNCc1ccc(-c2ccc3ncnc(Nc4ccc(OCc5cccc(F)c5)c(Cl)c4)c3c2)o1 [Lapatinib] (partner 2 µM)
How it was run: (§1)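 Nuclei were stained with Hoechst during a one-step fixation (final 0.05% Triton X-100, 1% formaldehyde, 1 ug/ml Hoechst) carried out 5 days after dosing, then counted on 4× images. The cells, lung cancer lines in 1536-well plates, had been dosed by pin tool the day after seeding with one drug alone or a fixed anchor-drug dose plus five library-drug doses (not always all listed) in √10 steps. Relative viability is the nuclei count in treated wells divided by that in vehicle wells, and each value is the median of duplicate plates.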

BX 795 + Pictilisib = compound: O=C(NCCCNc1nc(Nc2cccc(NC(=O)N3CCCC3)c2)ncc1I)c1cccs1 [BX 795] + CS(=O)(=O)N1CCN(Cc2cc3nc(-c4cccc5[nH]ncc45)nc(N4CCOCC4)c3s2)CC1 [Pictilisib] (partner 1 µM)
How it was run: as §1

BX 795 + Olaparib = compound: O=C(NCCCNc1nc(Nc2cccc(NC(=O)N3CCCC3)c2)ncc1I)c1cccs1 [BX 795] + O=C(c1cc(Cc2n[nH]c(=O)c3ccccc23)ccc1F)N1CCN(C(=O)C2CC2)CC1 [Olaparib] (partner 8 µM)
How it was run: as §1

BX 795 + Bortezomib = compound: O=C(NCCCNc1nc(Nc2cccc(NC(=O)N3CCCC3)c2)ncc1I)c1cccs1 [BX 795] + CC(C)C[C@H](NC(=O)[C@H](Cc1ccccc1)NC(=O)c1cnccn1)B(O)O [Bortezomib] (partner 0.002 µM)
How it was run: as §1

BX 795 + Linsitinib = compound: O=C(NCCCNc1nc(Nc2cccc(NC(=O)N3CCCC3)c2)ncc1I)c1cccs1 [BX 795] + C[C@]1(O)C[C@@H](c2nc(-c3ccc4ccc(-c5ccccc5)nc4c3)c3c(N)nccn32)C1 [Linsitinib] (partner 1 µM)
How it was run: as §1

BX 795 + Crizotinib = compound: O=C(NCCCNc1nc(Nc2cccc(NC(=O)N3CCCC3)c2)ncc1I)c1cccs1 [BX 795] + C[C@@H](Oc1cc(-c2cnn(C3CCNCC3)c2)cnc1N)c1c(Cl)ccc(F)c1Cl [Crizotinib] (partner 1 µM)
How it was run: as §1

BX 795 + Foretinib = compound: O=C(NCCCNc1nc(Nc2cccc(NC(=O)N3CCCC3)c2)ncc1I)c1cccs1 [BX 795] + COc1cc2c(Oc3ccc(NC(=O)C4(C(=O)Nc5ccc(F)cc5)CC4)cc3F)ccnc2cc1OCCCN1CCOCC1 [Foretinib] (partner 0.25 µM)
How it was run: as §1

BX 795 + Alpelisib = compound: O=C(NCCCNc1nc(Nc2cccc(NC(=O)N3CCCC3)c2)ncc1I)c1cccs1 [BX 795] + Cc1nc(NC(=O)N2CCC[C@H]2C(N)=O)sc1-c1ccnc(C(C)(C)C(F)(F)F)c1 [Alpelisib] (partner 2 µM)
How it was run: as §1

BX 795 + Navitoclax = compound: O=C(NCCCNc1nc(Nc2cccc(NC(=O)N3CCCC3)c2)ncc1I)c1cccs1 [BX 795] + CC1(C)CCC(c2ccc(Cl)cc2)=C(CN2CCN(c3ccc(C(=O)NS(=O)(=O)c4ccc(N[C@H](CCN5CCOCC5)CSc5ccccc5)c(S(=O)(=O)C(F)(F)F)c4)cc3)CC2)C1 [Navitoclax] (partner 0.5 µM)
How it was run: as §1

BX 795 = compound: O=C(NCCCNc1nc(Nc2cccc(NC(=O)N3CCCC3)c2)ncc1I)c1cccs1 [BX 795]
How it was run: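 Viability was defined as treated-well nuclei divided by vehicle-well nuclei, with the median taken over replicate plates. Cells from lung cancer lines sat overnight at 37 °C in 1536-well plates, received five √10-spaced library-drug doses by pinning on vehicle-anchored plates, and grew 5 days without medium change before one-step fixation, permeabilisation and Hoechst staining, 4× imaging and MetaXpress nuclear counts. Only plates with control CV under 25% and at least one doubling were kept.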

| Cell Line | relative viability (BX 795 + Lapatinib; first compound 0.04 µM) | relative viability (BX 795 + Lapatinib; first compound 0.1265 µM) | relative viability (BX 795 + Lapatinib; first compound 0.4 µM) | relative viability (BX 795 + Lapatinib; first compound 1.265 µM) | relative viability (BX 795 + Pictilisib; first compound 0.04 µM) | relative viability (BX 795 + Pictilisib; first compound 0.1265 µM) | relative viability (BX 795 + Pictilisib; first compound 0.4 µM) | relative viability (BX 795 + Pictilisib; first compound 1.265 µM) | relative viability (BX 795 + Olaparib; first compound 0.04 µM) | relative viability (BX 795 + Olaparib; first compound 0.1265 µM) | relative viability (BX 795 + Olaparib; first compound 0.4 µM) | relative viability (BX 795 + Olaparib; first compound 1.265 µM) | relative viability (BX 795 + Bortezomib; first compound 0.04 µM) | relative viability (BX 795 + Bortezomib; first compound 0.1265 µM) | relative viability (BX 795 + Bortezomib; first compound 0.4 µM) | relative viability (BX 795 + Bortezomib; first compound 1.265 µM) | relative viability (BX 795 + Linsitinib; first compound 0.04 µM) | relative viability (BX 795 + Linsitinib; first compound 0.1265 µM) | relative viability (BX 795 + Linsitinib; first compound 0.4 µM) | relative viability (BX 795 + Linsitinib; first compound 1.265 µM) | relative viability (BX 795 + Crizotinib; first compound 0.04 µM) | relative viability (BX 795 + Crizotinib; first compound 0.1265 µM) | relative viability (BX 795 + Crizotinib; first compound 0.4 µM) | relative viability (BX 795 + Crizotinib; first compound 1.265 µM) | relative viability (BX 795 + Foretinib; first compound 0.04 µM) | relative viability (BX 795 + Foretinib; first compound 0.1265 µM) | relative viability (BX 795 + Foretinib; first compound 0.4 µM) | relative viability (BX 795 + Foretinib; first compound 1.265 µM) | relative viability (BX 795 + Alpelisib; first compound 0.04 µM) | relative viability (BX 795 + Alpelisib; first compound 0.1265 µM) | relative viability (BX 795 + Alpelisib; first compound 0.4 µM) | relative viability (BX 795 + Alpelisib; first compound 1.265 µM) | relative viability (BX 795 + Navitoclax; first compound 0.04 µM) | relative viability (BX 795 + Navitoclax; first compound 0.1265 µM) | relative viability (BX 795 + Navitoclax; first compound 0.4 µM) | relative viability (BX 795 + Navitoclax; first compound 1.265 µM) | relative viability (BX 795; 0.04 µM) | relative viability (BX 795; 0.1265 µM) | relative viability (BX 795; 0.4 µM) | relative viability (BX 795; 1.265 µM) |
| --- | --- | --- | --- | --- | --- | --- | --- | --- | --- | --- | --- | --- | --- | --- | --- | --- | --- | --- | --- | --- | --- | --- | --- | --- | --- | --- | --- | --- | --- | --- | --- | --- | --- | --- | --- | --- | --- | --- | --- | --- |
| Calu-6 | 1.02 | 1.1 | 0.843 | 0.552 | 0.896 | 0.966 | 0.518 | 0.505 | 0.559 | 0.591 | 0.283 | 0.336 | 1.04 | 1.02 | 0.831 | 0.525 | 0.883 | 1.06 | 0.533 | 0.726 | 0.728 | 0.777 | 0.556 | 0.249 | 0.91 | 0.84 | 0.557 | 0.555 | 1.1 | 0.919 | 0.585 | 0.509 | 0.825 | 0.874 | 0.727 | 0.389 | 0.98 | 1 | 0.716 | 0.665 |
| EBC-1 | 0.217 | 0.189 | 0.231 | 0.188 | 0.419 | 0.351 | 0.262 | 0.157 | 0.794 | 0.707 | 0.765 | 0.355 | 0.571 | 0.458 | 0.551 | 0.269 | 0.957 | 0.864 | 0.85 | 0.439 | 0.199 | 0.186 | 0.184 | 0.172 | 0.104 | 0.0912 | 0.0982 | 0.0866 | 0.874 | 0.763 | 0.628 | 0.34 | 0.508 | 0.438 | 0.401 | 0.222 | 1.02 | 1.01 | 0.931 | 0.543 |
| NCI-H1299 | 0.885 | 0.977 | 1.02 | 0.798 | 0.759 | 0.747 | 0.751 | 0.399 | 1.02 | 0.985 | 0.918 | 0.637 | 1.08 | 1.01 | 1.06 | 0.938 | 0.983 | 0.968 | 0.987 | 0.767 | 1 | 0.933 | 1.01 | 0.674 | 1.13 | 1.09 | 1.16 | 0.876 | 1.05 | 1.09 | 1.07 | 1 | 1.05 | 0.996 | 1.06 | 0.926 | 0.972 | 1.03 | 1.05 | 0.883 |

Source: the supplement of paper PMC10307832
